Here are results for 53 molecules from PubChem BioAssay AID624145 (Sanford-Burnham Center for Chemical Genomics, 2012).

Active and inactive are the calls of the source.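 How the source made its calls: active means EC50 at or below 20 µM; inactive means the rest.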 A value given as a limit tells only on which side of the number the result lay.

This test relates to hiPSC single-cell survival, DAPI nuclei count imaging. Nature of the test: enhancers of single-cell hiPSC survival, dose response, imaging, fluorescence imaging, uHTS hits (AID 624145).
As to `O=C(Nc1ccncc1)c1ccccc1F`, the EC50 (commonly the concentration needed to bring the measured effect to its halfway point) is 28.2 µM (inactive).
Turning to `CCCCn1c(=O)[nH]c(=O)c2c1nc(Cn1ncc(Cl)c(Cl)c1=O)n2CCC`, the EC50 is > 80 µM (inactive).
Turning to `CCn1c(Cl)c(C=O)s/c1=N\S(=O)(=O)c1ccccc1`, the EC50 was > 80 µM (inactive).
In the case of `CCC(C(=O)Nc1ccc2[nH]ncc2c1)c1ccccc1` (stereo not drawn), the half-maximal effective concentration (EC50) is 6.49 µM.
The value for `CNc1cc(Cl)c2nonc2c1[N+](=O)[O-]` was > 80 µM (inactive); that for `O=S(=O)(c1cccc2cnccc12)N1CCNCC1` was 2.05 µM.
Turning to `COCCNC(=O)c1ccc(-c2cn[nH]c2)c2ccoc12`, the concentration giving a half-maximal response (EC50) was 19.2 µM.
Consider `CN1Cc2cnnn2-c2ccccc2C1C#N` (stereo not drawn), for which the EC50 was 26.5 µM (inactive).
Consider `CN(Cc1ccc(C(F)(F)F)cc1)C(=O)[C@H]1O[C@@H](n2cnc3c(N)ncnc32)[C@H](O)[C@@H]1O`, for which the EC50 is 20.8 µM (inactive).
Take `CC(Oc1ccccc1)C(=O)Nc1nc(-c2ccncc2)cs1` (stereo not drawn): the EC50 is 42.9 µM (inactive).
The value for `C=C(C)[C@@]12OC3(c4ccccc4)O[C@@H]1C1[C@@H]4O[C@]4(CO)[C@@H](O)[C@]4(O)C(=O)C(C)=C[C@H]4[C@@]1(O3)[C@H](C)[C@H]2OC(=O)/C=C/C=C/c1ccccc1` (stereo partly drawn) was > 80 µM (inactive); that for `NC(=O)c1ccc(NC(=O)CCC(=O)c2cccs2)cc1` was 7.14 µM; that for `O=C(COc1ccccc1)Nc1nc(-c2ccncc2)cs1` was 29.3 µM (inactive).
Regarding `Cc1nnc2n(C3CCCCC3)c(=O)c3c4c(sc3n12)COC(C)(C)C4`, the EC50 was > 80 µM (inactive).
`Cc1c(C(=O)OCC(=O)Nc2ccc(C(N)=O)cc2)cccc1[N+](=O)[O-]`: the EC50 is > 80 µM (inactive).
Take `C=C1[C@@H](C)[C@H]2[C@H](Cc3ccccc3)NC(=O)[C@]23OC(=O)/C=C/[C@H](O)CCC[C@@H](C)C/C=C/[C@H]3[C@@H]1O`: the EC50 is 12.5 µM.
For the molecule `O=C(C(O)c1ccc(Br)cc1)N1CCC(Nc2ccc3[nH]ncc3c2)CC1` (stereo not drawn), the concentration for a half-maximal effect (EC50) is 5.88 µM.
The value for `C=C1C(C)C2C(Cc3ccccc3)NC(=O)C23C(OC(C)=O)C=CC(C)(O)CC(C)CC=CC3C1O` (stereo not drawn) was > 80 µM (inactive).
`O=C(NCc1ccccc1)c1ccc(-c2cn[nH]c2)c2ccoc12`: the concentration giving a half-maximal response (EC50) is 1.1 µM.
The value for `N#C/C(=C/c1cccc([N+](=O)[O-])c1)c1nnc2n1CCCCC2` was > 80 µM (inactive); that for `COC(=O)CCSc1cc([N+](=O)[O-])cc2c1c(C1OCCS1)nn2-c1ccccc1` (stereo not drawn) was > 80 µM (inactive).
Under `COc1ccc2c(c1)c(=O)c(C(=O)c1ccc(Cl)cc1)cn2CC(=O)Nc1ccc(F)cc1` stands 18.6 µM; under `O=C(NCC1CC1)c1ccc(-c2cn[nH]c2)c2ccoc12`, 14.2 µM; under `CC1(C)Cc2c(C#N)c(SCC(=O)c3ccccc3)nc(N3CCOCC3)c2CS1`, 39.3 µM (inactive).
For the molecule `O=C1/C(=C/c2ccncc2)CCC/C1=C\c1ccncc1`, the EC50 is > 80 µM (inactive).
Under `O=C(Cc1ccc(Br)cc1)Nc1ccc2[nH]ncc2c1` stands 19.1 µM; under `O=C(Nc1ccncc1)c1c(F)c(F)c(F)c(F)c1F`, 5.46 µM.
The value for `O=C(Nc1ccncc1)c1cc(S(=O)(=O)N2CCOCC2)ccc1Cl` was 13.8 µM.
In the case of `O=C(Nc1ccncc1)c1cc(S(=O)(=O)N2CCCC2)ccc1Cl`, the EC50 is 13.6 µM.
Under `c1ccc(CN2CCN(c3nc(NCc4ccco4)c4ccccc4n3)CC2)cc1` stands 5.81 µM; under `CCCCCCC[C@@H](C/C=C/CCC(=O)N(C)C/C(=C/Cl)C/C(=C\C(=O)N1CC(OC)=CC1=O)OC)OC`, 0.525 µM.
`CC1C/C(=C/c2ccncc2)C(=O)/C(=C/c2ccncc2)C1` (stereo not drawn): the EC50 was > 80 µM (inactive).
The value for `CN(C(=O)COC(=O)c1nc(Cl)c(Cl)c(Cl)c1Cl)C1CCS(=O)(=O)C1` (stereo not drawn) was > 80 µM (inactive); that for `CC(OC(=O)c1ccc2c(=O)n3c(nc2c1)CCC3)C(=O)Nc1ccc(C(N)=O)cc1` (stereo not drawn) was 28.4 µM (inactive); that for `CN1C2CCC1/C(=C/c1ccccn1)C(=O)/C2=C\c1ccccn1` was > 80 µM (inactive).
`CC(C)(C)NC(=O)Cn1nnc(-c2ccccc2NC(=O)c2cnccn2)n1`: the EC50 is > 80 µM (inactive).
For the molecule `C=C1C(=O)OC2CC(C)C3C=CC(=O)C3(C)C(O)C12` (stereo not drawn), the EC50 was > 80 µM (inactive).
In the case of `CCN1C/C(=C\c2cccc([N+](=O)[O-])c2)C(=O)/C(=C/c2cccc([N+](=O)[O-])c2)C1`, the EC50 was > 80 µM (inactive).
As for `C=C1C(=O)O[C@@H]2C[C@@H](C)[C@@H]3C=CC(=O)[C@@]3(C)[C@@H](O)[C@H]12`, the EC50 is > 80 µM (inactive).
Take `CCCNC(=O)COC(=O)c1ccccc1C(=O)c1ccc(Cl)c([N+](=O)[O-])c1`: the EC50 is > 80 µM (inactive).
For `COc1ccccc1Sc1nc(-c2ccccn2)ncc1OC`, the EC50 was 45.7 µM (inactive).
`O=C(Nc1ccncc1)c1ccccc1[N+](=O)[O-]`: the EC50 was 33.4 µM (inactive).
With `CCOCCCNC(=O)/C(C#N)=C/c1ccc([N+](=O)[O-])o1`, the EC50 was > 80 µM (inactive).
As to `C=C1C(C)C2C(Cc3ccccc3)NC(=O)C23OC(=O)/C=C/C(O)CCCC(C)C/C=C/C3C1O` (stereo not drawn), the EC50 was 12.5 µM.
`CC(OC(=O)c1cccc(S(=O)(=O)N2CCN(C)CC2)c1)C(=O)Nc1ccc(C(N)=O)cc1` (stereo not drawn): the EC50 is 35.6 µM (inactive).
Turning to `O=C(Nc1ccncc1)c1c(F)cccc1F`, the EC50 is 13.6 µM.
Turning to `CN1C/C(=C/c2cccnc2)C(=O)/C(=C/c2cccnc2)C1`, the EC50 is > 80 µM (inactive).
The value for `CCCSc1nc(N2CCOCC2)c2c(c1C#N)CC(C)(C)SC2` was > 80 µM (inactive).
Under `O=c1c(Cl)c(Cl)cnn1Cc1nnc(-c2ccccc2Br)o1` stands > 80 µM (inactive); under `CC1(C)Cc2c(C#N)c(NCC3CCCO3)nc(-c3ccco3)c2CO1` (stereo not drawn), 42.8 µM (inactive); under `O=C(Nc1nc(-c2ccncc2)cs1)C1COc2ccccc2O1` (stereo not drawn), 1.86 µM.
For the molecule `CC(OC(=O)c1ccc(S(=O)(=O)N2CCCCC2)cc1)C(=O)Nc1ccc(C(N)=O)cc1` (stereo not drawn), the EC50 was 10.5 µM.
Regarding `CCN1C/C(=C/c2cccc([N+](=O)[O-])c2)C(=O)/C(=C/c2cccc([N+](=O)[O-])c2)C1`, the EC50 was > 80 µM (inactive).
